Assay results taken from US20150315211A1, “SMALL MOLECULES FOR THE MODULATION OF MCL-1 AND METHODS OF MODULATING CELL DEATH, CELL DIVISION, CELL DIFFERENTIATION AND METHODS OF TREATING DISORDERS” (priority 2010, published 2015).

Molecular target: MCL-1ΔNΔC (Homo sapiens, UniProt Q07820)
Settings: pre-incubation, re-concentration, FP with FITC-BID BH3
Procedure: A small sample was taken as a pre-dilution control. Compound-treated protein and unmodified protein were then diluted to a volume of 20 mL, and subsequently re-concentrated to 500 mL using 10K centrifugal filter units (Amicon). FP binding analysis was performed as described above by adding serial dilutions of compound-modified MCL-1 and unmodified MCL-1, both before and after dilution, followed by FITC-BID BH3 (15 nM) to a 96-well black flat bottom plate (Costar). FP measurements and analyses are then performed as described above.
Briefly, MCL-1ΔNΔC was pre-incubated with the small molecule inhibitors prior to dilution with buffer. The solution was concentrated to its original volume and fluorescence polarization was performed. Compounds that bind covalently will remain bound to the protein, whereas compounds that bind reversibly will be exchanged upon dilution.

Chain of MCL-1ΔNΔC (Q07820 172-320 limits assumed, stated change not applied): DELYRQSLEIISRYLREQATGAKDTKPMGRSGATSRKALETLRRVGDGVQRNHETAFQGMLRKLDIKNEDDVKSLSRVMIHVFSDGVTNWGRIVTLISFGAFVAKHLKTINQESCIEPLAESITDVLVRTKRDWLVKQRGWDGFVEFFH

Cc1cc2c(C(C)C)c(O)c(O)c(C=O)c2c(O)c1-c1c(C)cc2c(C(C)C)c(O)c(O)c(C=O)c2c1O [Gossypol]
mechanism of binding to MCL-1ΔNΔC upon dilution (reversible vs covalent): bound reversibly
